# Measurements taken from PMC9305358 (The Journal of Biological Chemistry, 2022).
# Columns and labels:
# FITC-casein = assay: fluorescence polarisation
# ClpC1-F444S [1] = type: biochemical, Mycobacterium tuberculosis
# ClpC1-F444S [2] = type: biochemical, Mycobacterium tuberculosis; remark: listed apart in the source
# ClpC1-E288A = type: biochemical, Mycobacterium tuberculosis
# ClpC1-E626A = type: biochemical, Mycobacterium tuberculosis
# ClpC1-WT–ClpP1P2 [3] = type: biochemical, Mycobacterium tuberculosis
# ClpC1-F444S–ClpP1P2 [4] = type: biochemical, Mycobacterium tuberculosis
# ClpC1-E288A with Sa ClpP = type: biochemical, Mycobacterium tuberculosis ClpC1; Staphylococcus aureus ClpP
# ClpC1-E626A with Sa ClpP = type: biochemical, Mycobacterium tuberculosis ClpC1; Staphylococcus aureus ClpP
# ClpC1-WT–ClpP1P2 [5] = type: biochemical, Mycobacterium tuberculosis; conditions: pH 7.5
# ClpC1-F444S–ClpP1P2 [6] = type: biochemical, Mycobacterium tuberculosis; remark: listed apart in the source
# ClpC1-WT–P1P2 = type: biochemical, Mycobacterium tuberculosis
# ClpC1-F444S–ClpP1P2 [7] = type: biochemical, Mycobacterium tuberculosis; remark: listed apart in the source
# ClpC1-WT and ClpP1P2 = type: biochemical, Mycobacterium tuberculosis
# ClpC1-F444S and ClpP1P2 = type: biochemical, Mycobacterium tuberculosis
# ClpC1–Sa ClpP = type: biochemical, Mycobacterium tuberculosis ClpC1; Staphylococcus aureus ClpP
# Mtb cells = conditions: ref [19], cited from earlier work
# NMtb–ClpC = conditions: ref [26]; cited from earlier work
# Sa ClpC = conditions: ref [26]; cited from earlier work
substance,measurement,setting,value
ATPase-deficient double Walker B variant ClpC1-E288A-E626A (from UniProt P9WPC9 1-848) (enzyme),Kd,FITC-casein,1000 nM
CyclomarinA [CymA],change of mass profile,ClpC1-F444S [1],No major changes in mass profiles
same,change of crosslink pattern / hexamer level,ClpC1-F444S [2],remained the same
same,effect on ATP hydrolysis of ClpC1-E288A,ClpC1-E288A,stimulated ATP hydrolysis of ClpC1-E288A
same,effect on ATP hydrolysis of ClpC1-E626A,ClpC1-E626A,but not ClpC1-E626A
same,inhibition of ClpC1-WT–ClpP1P2 activity,ClpC1-WT–ClpP1P2 [3],did not observe strong inhibition
same,increase of basal FITC-casein degradation activity,ClpC1-WT–ClpP1P2 [3]; pH 7.5,fourfold
same,effect of CymA on FITC-casein degradation by ClpC1-F444S–ClpP1P2,ClpC1-F444S–ClpP1P2 [4],further enhanced
same,effect on FITC-casein degradation,ClpC1-E288A with Sa ClpP,did not enhance FITC-casein degradation
same,effect on FITC-casein degradation,ClpC1-E626A with Sa ClpP,did not enhance FITC-casein degradation
same,enhancement of GFP-SsrA degradation,ClpC1-WT–ClpP1P2 [5],1.8 fold
same,effect of CymA on GFP-SsrA degradation by ClpC1-F444S–ClpP1P2,ClpC1-F444S–ClpP1P2 [6],slightly reduced
same,effect on VapB15 degradation,ClpC1-WT–P1P2,minor inhibition
same,effect on VapB15 degradation,ClpC1-F444S–ClpP1P2 [7],inhibitory effect
same,enhancement of FR-L-GFP degradation rate by CymA,ClpC1-WT and ClpP1P2,1.6 fold
same,reduction of ClpS-dependent FR-L-GFP degradation activity of ClpC1-F444S by CymA,ClpC1-F444S and ClpP1P2,2.3 fold
same,effect on FITC-casein degradation by ClpC1–Sa ClpP,ClpC1–Sa ClpP,comparable to those determined for ClpC1–ClpP1P2 complexes
same,toxicity to Mtb cells,"Mtb cells; [20], [21], [22]",highly toxic to Mtb cells
same,cellular toxicity in Mtb cells,Mtb cells,severe cellular toxicity
same,effect on ATPase and proteolytic activities of NMtb–ClpC,NMtb–ClpC,increases both ATPase and proteolytic activities
same,sensitivity of Sa ClpC WT with native NTD to CymA,Sa ClpC,insensitive
